Experimental data as given in US7572439B2, “Enzyme disruption of bacterial biofilms” (priority 2002, dated 2009).
Marks after values point to notes of the source that are not given here.

Key:
[1] = system: S. aureus biofilms; assay: Biofilm assay: S. aureus biofilms in 96 well plates or plate inserts, safranin stain or SEM; type: cell-based; conditions: 50 μg/ml in PBS, three hours
[2] = system: biofilms of S. aureus SA113; assay: Kinetic effect on established biofilms: absorbance at 650 nm and safranin staining; type: cell-based; conditions: for absorbance of biofilms at 650 nM: 6.25 μg/ml in PBS
Protocol: Oxacillin and vancomycin have often been used in antibiotic susceptibility studies of S. aureus biofilms. […] Twenty four-hour biofilms in polystyrene 96-well tissue culture plates were treated with serial dilutions of lysostaphin, oxacillin, and vancomycin (FIG. 7).
In order to examine the kinetic effect of lysostaphin, oxacillin and vancomycin on biofilms, the absorbance of established biofilms in a 96-well tissue culture plate was measured over time (0-3 hrs and 24 hrs). Tissue culture wells containing biofilms of S. aureus SA113 were incubated with serial dilutions of lysostaphin ([…]), oxacillin ([…]), or vancomycin ([…]) for 24 hours, and the absorbance at 650 nm was monitored every 20 minutes for the first 3 hours and then again at 24 hours. The absorbance of the lysostaphin-treated biofilms dropped from approximately 0.35 at time zero to 0.125 after 3 hours of treatment and dropped to near base line (0.04) by 24 hrs when treated with a dose of lysostaphin of 6.25 μg/ml in PBS (FIG. 7). […] Since antimicrobials like oxacillin or vancomycin are effective against actively metabolizing bacteria, a similar experiment was conducted but the biofilms were incubated with the three anti-microbials in bacterial media (TSB). Very similar results were also found when the assay was conducted in TSB rather than PBS.
The capacity of the three agents to disrupt S. aureus biofilms in polystyrene wells can be visualized by comparing the staining intensity of treated wells versus control (buffer-treated) wells.

[3] = system: S. aureus strain SA5; assay: Killing of bacteria in lysostaphin-coated polystyrene wells; type: cell-based; conditions: for CFU (n = 2): Table 13, Polystyrene
Protocol: Six wells were incubated with 300 μl of either 10 mg/ml, 1 mg/ml or 100 μg/ml of lysostaphin diluted in PBS. All the samples were done in duplicates. The plate was allowed to incubate overnight at 4° C. The following morning the wells were washed with 1 ml of PBS ten times, using vacuum suction to clean out the wells. S. aureus strain SA5 was diluted in PBS to a percent transmittance of 40. A 1:10,000 dilution of this solution was made, and 300 μl was added to each well. The plates were put in a shaking incubator at 75 rpm for two hours at 37° C. After two hours, 40 μl from each well was taken out and plated onto a blood agar plate and put in the incubator overnight at 37° C. The colonies on the plates were counted the following morning.
Coating of polystyrene wells. Wells were coated with 300 μl of 10 mg/ml, 1 mg/ml or 0.1 mg/ml of lysostaphin diluted in PBS. The plate was incubated overnight at 4° C. Wells were washed with 1 ml of PBS ten times, and washes were removed by vacuum suction. 300 μl of a 5×10^4 CFU/ml solution of S. aureus was added to each well. The plate was shaken at 75 rpm for two hours at 37° C. 40 μl from each well was then removed and streaked onto a blood agar plate and incubated overnight at 37° C.

[4] = system: S. aureus; assay: Pre-treatment of catheterized mice with lysostaphin before S. aureus challenge; type: in vivo; conditions: for CFUs catheter / CFUs heart / CFUs liver: rinsed; for Animals infected: rinsed after 22 hours, 10^4 S. aureus, 4 days
Protocol: Jugular vein catheterized mice were pretreated with one or two doses of lysostaphin via catheter prior to being challenged with S. aureus as in Example 4. The mice received either one dose of lysostaphin (40 mg/kg) 24 hours pre-challenge or two doses of lysostaphin (40 mg/kg) 24 hours and 2 hours pre-challenge. Lysostaphin solutions were left in the catheters during challenge. Control mice received standard Phosphate Buffered Saline (PBS). The mice were sacrificed four days post-challenge.
In the above example, the lysostaphin solution was left in the catheters at the time of bacterial challenge, so it could be argued that this lysostaphin in solution was protecting the catheters from S. aureus infection. In order to perform a more rigorous experiment, Catheterized mice were instilled with a single dose of 40 mg/kg lysostaphin in 200 ul PBS through the catheter. One group also received a subsequent 50 ul of lock solution containing the same concentration of lysostaphin as the pre-instillation dose. Twenty two hours later, the catheters of all of these mice were rinsed thoroughly with PBS. Two hours post-rinsing, the animals were challenged with 10^4 S. aureus. The animals were sacrificed 4 days post S. aureus challenge and the catheters and organs processed for bacteria.

[5] = system: SA5; assay: Adherence of bacteria to catheters; type: cell-based, S. aureus
Protocol: Adherence of Bacteria to Catheters. Lysostaphin coated catheters were placed in 2 ml of a 0.1 mg/ml solution of lysostaphin for 2 hours with shaking at 37° C. to coat the outside of the catheter. They were then washed and placed in a 5×10^4 CFU/ml solution of SA5 and incubated for 3 hours at 37° C. 40 μl of the bacterial solution was streaked on to blood agar plates and incubated at 37° C. overnight. The catheters were incubated in 2 ml TSB overnight at 37° C. and examined for growth. Untreated catheters were washed with 50 ml PBS and then inoculated with 120 μl of a 5×10^6 CFU/ml solution of bacteria and incubated for 2 or 24 hours. The catheter effluent was then streaked onto blood agar plates and placed at 37° C. overnight. The catheters were washed with 50 ml PBS and the last ml of wash was collected, and 100 μl was streaked onto blood agar plates and incubated at 37° C. overnight. The catheters were then incubated in 1 ml TSB at 37° C. overnight and observed for growth.

[6] = 40 mg/kg i.c., no lock, results from the one infected animal

## lysostaphin
[1]; S. aureus strain MBT 5040 (MRSA), room temperature
  biofilm disruption (safranin stain): completely disrupted
[1]; lysostaphin-resistant S. aureus
  biofilm disruption of lysostaphin-resistant strains (safranin stain): failure of lysostaphin to disrupt biofilms
[2]; 24 hrs
  absorbance of biofilms at 650 nM: ~0.04
[2]; after 3 hours
  absorbance of biofilms at 650 nM: 0.125
[2]; time zero
  absorbance of biofilms at 650 nM: approximately 0.35
[2]; in PBS, 24 hours
  lowest concentration that cleared biofilms (safranin): 0.8 µg/mL
[2]; in TSB, 24 hours (data not shown)
  effect on absorbance of biofilms: reduced the absorbance of biofilms to near background
[2]; lysostaphin 6.25 cg/ml, vancomycin 800 cg/ml, oxacillin 400 cg/ml
  effect on absorbance of S. aureus biofilms over time (FIG. 7 legend): immediate and continuous drop in the absorbance
[3]; coating concentration 0.1 mg/ml
  CFU (n = 2): 3 CFU
[3]; coating concentration 1 mg/ml
  CFU (n = 2): 1 CFU
[3]; coating concentration 10 mg/ml
  CFU (n = 2): 1 CFU
[3]; bacteria added directly to the 0.1 mg/mL coated wells
  log reduction in bacterial counts: 2.4 log
[3]; lysostaphin coated polystyrene wells vs control wells
  reduction in bacterial counts: 99.5%
[3]; polystyrene wells, 610 CFU's in control wells
  CFU's remaining in lysostaphin coated wells, on average: 3 CFU
[4]; 40 mg/kg i.c. and lock
  CFUs catheter: 0 CFUs
  CFUs heart: 0 CFUs
  CFUs liver: 0 CFUs
  Animals infected: 0/4
[4]; 40 mg/kg i.c., no lock
  CFUs catheter: 0 CFUs
  Animals infected: 1/4
[4]; [6]
  CFUs heart: (287)^a CFUs
  CFUs liver: (341)^a CFUs
[4]; 40 mg/kg via catheter 24 hours or 24 hours and 2 hours pre-challenge, solution left in catheters, four days post-challenge
  infection status of pretreated mice: All eight treated mice were S. aureus free
[4]; single dose of 40 mg/kg pre-instilled, excess rinsed out
  protection of catheters from formation of S. aureus biofilms: will protect the catheters from formation of S. aureus biofilms
[5]; after 3 hours in bacterial solution
  growth after overnight incubation of catheters in TSB: the catheters remained sterile
[5]; catheters coated inside and outside, 5×10^4 CFU/ml SA5, 3 hrs
  clearing of bacterial solution by coated catheters: cleared the solution
